Laboratory results taken from ChEMBL document CHEMBL1141941, “Biaryl diamides as potent melanin concentrating hormone receptor 1 antagonists” (Bioorg Med Chem Lett, 2005).
pKi: −log10 of the molar value.

How the values were obtained:
[1] = molecular target: Melanin-concentrating hormone receptor 2 (Homo sapiens, UniProt Q969V1); assay: Antagonist activity against human MCH2 receptor; format: functional
[2] = molecular target: Melanin-concentrating hormone receptor 1 (Homo sapiens, UniProt Q99705); assay: Antagonist activity against human MCH1 receptor; format: functional
Melanin-concentrating hormone receptor 1, sequence (Q99705 whole entry): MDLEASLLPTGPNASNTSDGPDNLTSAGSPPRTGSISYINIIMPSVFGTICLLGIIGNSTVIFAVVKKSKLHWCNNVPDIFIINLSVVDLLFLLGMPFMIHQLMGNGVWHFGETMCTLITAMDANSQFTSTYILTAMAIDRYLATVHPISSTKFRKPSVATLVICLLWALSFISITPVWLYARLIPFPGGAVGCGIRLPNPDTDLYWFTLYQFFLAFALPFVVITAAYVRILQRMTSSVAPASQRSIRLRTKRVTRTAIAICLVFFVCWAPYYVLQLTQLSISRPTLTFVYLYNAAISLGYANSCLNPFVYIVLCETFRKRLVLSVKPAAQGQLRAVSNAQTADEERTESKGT

Melanin-concentrating hormone receptor 2, sequence (Q969V1 whole entry): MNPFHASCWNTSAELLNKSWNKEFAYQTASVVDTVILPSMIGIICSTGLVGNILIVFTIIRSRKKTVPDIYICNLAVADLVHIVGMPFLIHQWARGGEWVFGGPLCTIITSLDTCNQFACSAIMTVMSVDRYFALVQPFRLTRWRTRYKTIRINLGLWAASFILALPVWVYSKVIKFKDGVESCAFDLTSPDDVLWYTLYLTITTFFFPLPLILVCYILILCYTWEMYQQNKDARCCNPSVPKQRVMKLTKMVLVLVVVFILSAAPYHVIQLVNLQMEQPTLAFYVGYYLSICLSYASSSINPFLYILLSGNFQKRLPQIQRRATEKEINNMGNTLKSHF

| Structure (SMILES) | pKi [1] | pKi [2] |
| --- | --- | --- |
| N#Cc1cccc(-c2ccc(CN(CC(=O)Nc3cc(Cl)cc(Cl)c3)C(=O)CN3CCCC3)cc2)c1 | < 5.52 |  |
| N#Cc1cccc(-c2ccc(CN(CCCN3CCCC3)C(=O)Nc3ccc(F)c(C(F)(F)F)c3)cc2)c1 | < 5.52 | 7.15 |
| N#Cc1cccc(-c2ccc(CN(CCN3CCCC3)C(=O)Nc3cc(Cl)cc(Cl)c3)cc2)c1 | < 5.52 | 6.82 |
| N#Cc1cccc(-c2ccc(CCN(CC(=O)Nc3cc(Cl)cc(Cl)c3)C(=O)CCN3CC[C@H](O)C3)cc2)c1 | < 5.52 |  |
| N#Cc1cccc(-c2ccc(CN(CC(=O)Nc3cc(Cl)cc(Cl)c3)C(=O)CCN3CCCC3)cc2)c1 | < 5.52 |  |
| C[C@@H](c1ccc(-c2cccc(C#N)c2)cc1)N(CC(=O)Nc1cc(Cl)cc(Cl)c1)C(=O)CCN1CC[C@H](O)C1 | < 5.52 | 7.74 |
| N#Cc1cccc(-c2ccc(CN(CCN3CCCC3)C(=O)Nc3ccc(F)c(C(F)(F)F)c3)cc2)c1 | < 5.52 | 6.80 |
| N#Cc1cccc(-c2ccc(CCN(CC(=O)Nc3cc(Cl)cc(Cl)c3)C(=O)CCN3CC[C@@H](O)C3)cc2)c1 | < 5.52 |  |
| N#Cc1cccc(-c2ccc(CCN(CC(=O)Nc3cc(Cl)cc(Cl)c3)C(=O)CN3CC[C@H](O)C3)cc2)c1 | < 5.52 |  |
| CC(=O)N[C@@H]1CCN(CC(=O)N(CCc2ccc(-c3cccc(C#N)c3)cc2)CC(=O)Nc2cc(Cl)cc(Cl)c2)C1 | < 5.52 |  |
| N#Cc1cccc(-c2ccc(CN(CCCN3CCCC3)C(=O)Nc3cc(Cl)cc(Cl)c3)cc2)c1 | < 5.52 | 7.32 |

Continued, values first:

| pKi [1] | pKi [2] | Structure (SMILES) |
| --- | --- | --- |
| < 5.52 |  | N#Cc1cccc(-c2ccc(CN(CC(=O)Nc3cc(Cl)cc(Cl)c3)C(=O)CN3CC[C@H](O)C3)cc2)c1 |
| < 5.52 | 7.80 | C[C@@H](c1ccc(-c2cccc(C#N)c2)cc1)N(CC(=O)Nc1cc(Cl)cc(Cl)c1)C(=O)CN1CC[C@H](O)C1 |
| < 5.52 | 7.51 | C[C@H](c1ccc(-c2cccc(C#N)c2)cc1)N(CC(=O)Nc1cc(Cl)cc(Cl)c1)C(=O)CN1CC[C@H](O)C1 |
| < 5.52 | 7.32 | N#Cc1cccc(-c2ccc(CN(CCCN3CCCC3)C(=O)Nc3ccc(F)c(Cl)c3)cc2)c1 |
| < 5.52 |  | N#Cc1cccc(-c2ccc(CCN(CC(=O)Nc3cc(Cl)cc(Cl)c3)C(=O)CN3CCCC3)cc2)c1 |
| < 5.52 | 6.88 | CC(C)(c1ccc(-c2cccc(C#N)c2)cc1)N(CC(=O)Nc1cc(Cl)cc(Cl)c1)C(=O)CN1CCCC1 |
| < 5.52 |  | N#Cc1cccc(-c2ccc(CCN(CC(=O)Nc3cc(Cl)cc(Cl)c3)C(=O)CN3CC[C@@H](O)C3)cc2)c1 |
| < 5.52 | 7.64 | C[C@H](c1ccc(-c2cccc(C#N)c2)cc1)N(CC(=O)Nc1cc(Cl)cc(Cl)c1)C(=O)CCN1CC[C@H](O)C1 |
| < 5.52 |  | N#Cc1cccc(-c2ccc(CCN(CC(=O)Nc3cc(Cl)cc(Cl)c3)C(=O)CCN3CCCC3)cc2)c1 |
| < 5.52 | 7.12 | C[C@H](c1ccc(-c2cccc(C#N)c2)cc1)N(CC(=O)Nc1cc(Cl)cc(Cl)c1)C(=O)CCCN1CC[C@H](O)C1 |
| < 5.52 | 6.54 | N#Cc1cccc(-c2ccc(CN(CCN3CCCC3)C(=O)Nc3ccc(F)c(Cl)c3)cc2)c1 |
| < 5.52 |  | N#Cc1cccc(-c2ccc(CN(CC(=O)Nc3cc(Cl)cc(Cl)c3)C(=O)CN3CC[C@@H](O)C3)cc2)c1 |
